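Assay format: 96-well plates, 48-hour exposure. Abbreviation: GI50, concentration required for 50% inhibition of growth.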 Calls of active or inactive are those of the source. No stated cut-off is given here; in the data, active = GI50 up to about 1.1 µM and inactive = higher.
How the values were obtained:
Assay in all cases: NCI anticancer screen, dose series, 48 h
BT-549 = system: BT-549
NCI/ADR-RES = system: NCI/ADR-RES
HOP-62 = system: HOP-62
MDA-MB-231 = system: MDA-MB-231
Malme-3M = system: Malme-3M
T47D = system: T47D
UACC-62 = system: UACC-62
UO-31 = system: UO-31
NCI-H23 = system: NCI-H23
HCC 2998 = system: HCC 2998
EKVX = system: EKVX
RPMI-8226 = system: RPMI-8226
PC-3 = system: PC-3
SK-MEL-2 = system: SK-MEL-2
OVCAR-5 = system: OVCAR-5
786-0 = system: 786-0
OVCAR-4 = system: OVCAR-4
NCI-H522 = system: NCI-H522
NCI-H226 = system: NCI-H226
A498 = system: A498
KM12 = system: KM12
NCI-H460 = system: NCI-H460
SR = system: SR
COLO 205 = system: COLO 205
MCF7 = system: MCF7
MDA-N = system: MDA-N
OVCAR-8 = system: OVCAR-8
SNB-19 = system: SNB-19
A549 = system: A549
LOX IMVI = system: LOX IMVI
SNB-75 = system: SNB-75
HCT-116 = system: HCT-116
CAKI-1 = system: CAKI-1
DU-145 = system: DU-145
SK-MEL-5 = system: SK-MEL-5
SF-295 = system: SF-295
IGROV-1 = system: IGROV-1
CCRF-CEM = system: CCRF-CEM
SW-620 = system: SW-620
HCT-15 = system: HCT-15
K562 = system: K562
SK-OV-3 = system: SK-OV-3
Hs-578T = system: Hs-578T
SK-MEL-28 = system: SK-MEL-28
MDA-MB-435 = system: MDA-MB-435
MOLT-4 = system: MOLT-4
ACHN = system: ACHN
SN12C = system: SN12C
OVCAR-3 = system: OVCAR-3
M14 = system: M14
SF-268 = system: SF-268
HT-29 = system: HT-29
U-251 = system: U-251
HL-60 = system: HL-60
RXF 393 = system: RXF 393
HOP-92 = system: HOP-92
UACC-257 = system: UACC-257
SF-539 = system: SF-539
TK-10 = system: TK-10

In the case of COC(=O)[C@H](Cc1ccccc1)NC(=O)N(CCNC(=O)OC(C)(C)C)c1ccccc1, the GI50 (BT-549) is reported as > 100 µM (inactive), the GI50 (NCI/ADR-RES) is reported as > 100 µM (inactive) and the GI50 (HOP-62) is reported as > 100 µM (inactive). The GI50 (MDA-MB-231) was > 100 µM (inactive), the GI50 (Malme-3M) was > 100 µM (inactive) and the GI50 (T47D) was 51.4 µM (inactive). The GI50 (UACC-62) was > 100 µM (inactive), the GI50 (UO-31) was > 100 µM (inactive) and the GI50 (NCI-H23) was > 100 µM (inactive). For the same molecule, the GI50 (HCC 2998) was > 100 µM (inactive), the GI50 (EKVX) was > 100 µM (inactive) and the GI50 (RPMI-8226) was > 100 µM (inactive). For the same molecule, the GI50 (PC-3) was > 100 µM (inactive), the GI50 (SK-MEL-2) was > 100 µM (inactive) and the GI50 (OVCAR-5) was > 100 µM (inactive). For the same molecule, the GI50 (786-0) was > 100 µM (inactive), the GI50 (OVCAR-4) was > 100 µM (inactive) and the GI50 (NCI-H522) was > 100 µM (inactive). The GI50 (NCI-H226) was > 100 µM (inactive), the GI50 (A498) was > 100 µM (inactive) and the GI50 (KM12) was > 100 µM (inactive). The GI50 (NCI-H460) was > 100 µM (inactive), the GI50 (SR) was > 100 µM (inactive) and the GI50 (COLO 205) was > 100 µM (inactive). The GI50 (MCF7) was > 100 µM (inactive), the GI50 (MDA-N) was > 100 µM (inactive) and the GI50 (OVCAR-8) was > 100 µM (inactive). For the same molecule, the GI50 (SNB-19) was > 100 µM (inactive), the GI50 (A549) was > 100 µM (inactive) and the GI50 (LOX IMVI) was > 100 µM (inactive). For the same molecule, the GI50 (SNB-75) was > 100 µM (inactive), the GI50 (HCT-116) was > 100 µM (inactive) and the GI50 (CAKI-1) was > 100 µM (inactive). For the same molecule, the GI50 (DU-145) was > 100 µM (inactive), the GI50 (SK-MEL-5) was > 100 µM (inactive) and the GI50 (SF-295) was > 100 µM (inactive). The GI50 (IGROV-1) was > 100 µM (inactive), the GI50 (CCRF-CEM) was > 100 µM (inactive) and the GI50 (SW-620) was > 100 µM (inactive). For the same molecule, the GI50 (HCT-15) was over 100 µM, the GI50 (K562) was > 100 µM (inactive) and the GI50 (SK-OV-3) was > 100 µM (inactive). For the same molecule, the GI50 (Hs-578T) was > 100 µM (inactive), the GI50 (SK-MEL-28) was > 100 µM (inactive) and the GI50 (MDA-MB-435) was > 100 µM (inactive). The GI50 (MOLT-4) was > 100 µM (inactive), the GI50 (ACHN) was > 100 µM (inactive) and the GI50 (SN12C) was > 100 µM (inactive). For the same molecule, the GI50 (OVCAR-3) was > 100 µM (inactive), the GI50 (M14) was > 100 µM (inactive) and the GI50 (SF-268) was > 100 µM (inactive). The GI50 (HT-29) was > 100 µM (inactive), the GI50 (U-251) was > 100 µM (inactive) and the GI50 (HL-60) was > 100 µM (inactive). The GI50 (RXF 393) was 87.1 µM (inactive).

With COc1ccc(/C=C(/C#N)C(N)=O)cc1OC the GI50 (BT-549) was > 100 µM (inactive), the GI50 (NCI/ADR-RES) was > 100 µM (inactive) and the GI50 (HOP-62) was > 100 µM (inactive). The GI50 (MDA-MB-231) was > 100 µM (inactive), the GI50 (HOP-92) was > 100 µM (inactive) and the GI50 (Malme-3M) was > 100 µM (inactive). The GI50 (T47D) was > 100 µM (inactive), the GI50 (UACC-62) was > 100 µM (inactive) and the GI50 (NCI-H23) was > 100 µM (inactive). The GI50 (EKVX) was > 100 µM (inactive), the GI50 (RPMI-8226) was > 100 µM (inactive) and the GI50 (PC-3) was > 100 µM (inactive). The GI50 (SK-MEL-2) was > 100 µM (inactive), the GI50 (OVCAR-5) was > 100 µM (inactive) and the GI50 (786-0) was > 100 µM (inactive). For the same molecule, the GI50 (OVCAR-4) was > 100 µM (inactive), the GI50 (NCI-H522) was > 100 µM (inactive) and the GI50 (NCI-H226) was > 100 µM (inactive). The GI50 (A498) was 72.6 µM (inactive), the GI50 (KM12) was > 100 µM (inactive) and the GI50 (NCI-H460) was > 100 µM (inactive). For the same molecule, the GI50 (SR) was > 100 µM (inactive), the GI50 (COLO 205) was > 100 µM (inactive) and the GI50 (MCF7) was > 100 µM (inactive). The GI50 (MDA-N) was > 100 µM (inactive), the GI50 (OVCAR-8) was > 100 µM (inactive) and the GI50 (UACC-257) was > 100 µM (inactive). For the same molecule, the GI50 (SNB-19) was > 100 µM (inactive), the GI50 (A549) was > 100 µM (inactive) and the GI50 (LOX IMVI) was > 100 µM (inactive). For the same molecule, the GI50 (SNB-75) was > 100 µM (inactive), the GI50 (HCT-116) was > 100 µM (inactive) and the GI50 (SF-539) was > 100 µM (inactive). For the same molecule, the GI50 (CAKI-1) was > 100 µM (inactive), the GI50 (DU-145) was > 100 µM (inactive) and the GI50 (SK-MEL-5) was > 100 µM (inactive). For the same molecule, the GI50 (SF-295) was > 100 µM (inactive), the GI50 (IGROV-1) was > 100 µM (inactive) and the GI50 (CCRF-CEM) was 42.1 µM (inactive). The GI50 (SW-620) was > 100 µM (inactive), the GI50 (HCT-15) was over 100 µM and the GI50 (TK-10) was > 100 µM (inactive). For the same molecule, the GI50 (K562) was > 100 µM (inactive), the GI50 (SK-OV-3) was > 100 µM (inactive) and the GI50 (Hs-578T) was > 100 µM (inactive). For the same molecule, the GI50 (SK-MEL-28) was > 100 µM (inactive), the GI50 (MDA-MB-435) was > 100 µM (inactive) and the GI50 (MOLT-4) was > 100 µM (inactive). For the same molecule, the GI50 (ACHN) was > 100 µM (inactive), the GI50 (SN12C) was > 100 µM (inactive) and the GI50 (OVCAR-3) was > 100 µM (inactive). The GI50 (M14) was > 100 µM (inactive), the GI50 (SF-268) was > 100 µM (inactive) and the GI50 (HT-29) was > 100 µM (inactive). For the same molecule, the GI50 (U-251) was > 100 µM (inactive), the GI50 (HL-60) was > 100 µM (inactive) and the GI50 (RXF 393) was > 100 µM (inactive).

For CO[C@]1(c2ccc([N+](=O)[O-])cc2)Oc2ccccc2C(=O)[C@@]1(Nc1ccc(C=O)cc1)OC, the GI50 (BT-549) was > 10 µM (inactive), the GI50 (NCI/ADR-RES) was > 10 µM (inactive) and the GI50 (HOP-62) was > 10 µM (inactive). For the same molecule, the GI50 (MDA-MB-231) was > 10 µM (inactive), the GI50 (Malme-3M) was > 10 µM (inactive) and the GI50 (T47D) was > 10 µM (inactive). For the same molecule, the GI50 (UACC-62) was > 10 µM (inactive), the GI50 (UO-31) was > 10 µM (inactive) and the GI50 (NCI-H23) was > 10 µM (inactive). The GI50 (HCC 2998) was > 10 µM (inactive), the GI50 (EKVX) was > 10 µM (inactive) and the GI50 (RPMI-8226) was > 10 µM (inactive). The GI50 (PC-3) was > 10 µM (inactive), the GI50 (SK-MEL-2) was > 10 µM (inactive) and the GI50 (OVCAR-5) was > 10 µM (inactive). The GI50 (786-0) was > 10 µM (inactive), the GI50 (OVCAR-4) was > 10 µM (inactive) and the GI50 (NCI-H226) was > 10 µM (inactive). For the same molecule, the GI50 (A498) was > 10 µM (inactive), the GI50 (KM12) was > 10 µM (inactive) and the GI50 (NCI-H460) was > 10 µM (inactive). For the same molecule, the GI50 (SR) was > 10 µM (inactive), the GI50 (COLO 205) was > 10 µM (inactive) and the GI50 (MCF7) was > 10 µM (inactive). For the same molecule, the GI50 (MDA-N) was > 10 µM (inactive), the GI50 (OVCAR-8) was > 10 µM (inactive) and the GI50 (UACC-257) was > 10 µM (inactive). The GI50 (SNB-19) was > 10 µM (inactive), the GI50 (A549) was > 10 µM (inactive) and the GI50 (LOX IMVI) was > 10 µM (inactive). The GI50 (SNB-75) was > 10 µM (inactive), the GI50 (HCT-116) was > 10 µM (inactive) and the GI50 (SF-539) was > 10 µM (inactive). The GI50 (CAKI-1) was > 10 µM (inactive), the GI50 (DU-145) was > 10 µM (inactive) and the GI50 (SK-MEL-5) was > 10 µM (inactive). For the same molecule, the GI50 (SF-295) was > 10 µM (inactive), the GI50 (IGROV-1) was > 10 µM (inactive) and the GI50 (CCRF-CEM) was > 10 µM (inactive). The GI50 (SW-620) was > 10 µM (inactive), the GI50 (HCT-15) was over 10 µM and the GI50 (TK-10) was > 10 µM (inactive). The GI50 (K562) was > 10 µM (inactive), the GI50 (SK-OV-3) was > 10 µM (inactive) and the GI50 (Hs-578T) was > 10 µM (inactive). For the same molecule, the GI50 (SK-MEL-28) was > 10 µM (inactive), the GI50 (MDA-MB-435) was > 10 µM (inactive) and the GI50 (MOLT-4) was > 10 µM (inactive). For the same molecule, the GI50 (ACHN) was > 10 µM (inactive), the GI50 (SN12C) was > 10 µM (inactive) and the GI50 (OVCAR-3) was > 10 µM (inactive). The GI50 (M14) was > 10 µM (inactive), the GI50 (SF-268) was > 10 µM (inactive) and the GI50 (HT-29) was > 10 µM (inactive). The GI50 (U-251) was > 10 µM (inactive), the GI50 (HL-60) was > 10 µM (inactive) and the GI50 (RXF 393) was > 10 µM (inactive).

Reference: ChEMBL document CHEMBL1201862, “PubChem BioAssay data set” (2004)
